Read-outs that look alike come from different tables or passages of the source. Blank lines part the entries; values can stand above or below the molecule they belong to.
Experiments:
Format in all cases: cell-based
Normal WI38 (NSC) = experiment: Viability of normal WI38 cells (NSC), 72 h, PI staining and flow cytometry
Procedure: (§1) Normal WI38 (NSC) and IR-induced senescent WI38 cells (IR-SC) were incubated with vehicle or increasing concentrations of compounds of Formula (I) or Formula (II) for 72 hours. The cells were digested with 0.25% trypsin and 1 mM EDTA, and harvested in PBS containing 2% FBS. After incubation with propidium iodide (PI, 100 ng/ml) in PBS at room temperature for 1 minute, cells were centrifuged at 1,200 rpm for 6 minutes to remove PI and then resuspended in PBS containing 2% FBS for analysis using a flow cytometer. Viable cells (PI-cells) were analyzed by flow cytometry at a constant flow rate to count the number of cells and calculated as a percentage of control cells treated with vehicle. Table 1 depicts the EC50 values of the compounds of Formula (I) and compounds of Formula (II) against normal WI38 and IR-induced senescent WI38.

[1] = system: IR-induced senescent WI38 cells (IR-SC); experiment: Viability of IR-induced senescent WI38 cells (IR-SC), 72 h, PI staining and flow cytometry; settings: for EC50: IR-induced senescent WI38 cells, 72 hours, viable (PI-) cells as percentage of vehicle control; for Ratio NSC/SC: ratio of WI38 EC50 in NSC to EC50 in IR-SC
Procedure: as §1

RS4; 11 cancer cells = experiment: Cancer cell viability by MTS, 72 h, RS4;11; settings: RS4;11 cells
Procedure: (§2) RS4; 11 and NCI-H146 cancer cells were incubated with vehicle or increasing concentrations of compounds of Formula (I) and Formula (II). At 72 hours post-treatment cell viability was measured by MTS and EC50 was calculated as a percentage of control cells treated with vehicle. Table 1 depicts the EC50 values of compounds of Formula (I) and Formula (II) against RS4; 11 and NCI-H146.

NCI-H146 cancer cells = experiment: Cancer cell viability by MTS, 72 h, NCI-H146
Procedure: as §2

Bcl-xL [2] = target: T1, Bcl-xL (Homo sapiens, UniProt Q07817); experiment: Protein degradation assay (Western blot) in IR-SC WI38 cells; settings: for Bcl-xL depletion in IR-SC WI38 cells: 1 μM (FIG. 4A)
T1 construct: endogenous in cells; host or cells: WI38 cells (normal NC-WI38 and ionizing-radiation-induced senescent IR-SC WI38)
T1 sequence (Q07817 whole entry): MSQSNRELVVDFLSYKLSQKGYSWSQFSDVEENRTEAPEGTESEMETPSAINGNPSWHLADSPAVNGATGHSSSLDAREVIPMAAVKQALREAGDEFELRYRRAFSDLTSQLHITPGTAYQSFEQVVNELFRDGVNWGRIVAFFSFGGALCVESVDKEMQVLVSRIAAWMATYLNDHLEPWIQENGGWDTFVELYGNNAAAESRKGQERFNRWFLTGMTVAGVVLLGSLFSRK
Procedure: IR-SC WI38 cells were incubated with vehicle or increasing concentrations of XZ-14439 for 18 hours at increasing […] (FIG. 3A) and at a fixed concentration of XZ-14439 for increasing times (FIG. […]). The cells were digested with 0.25% trypsin and 1 mM EDTA, and harvested in RIPA lysis buffer with 1% Phosphatase Inhibitor Cocktail 3 and 1% Protease Inhibitor Cocktail. An equal amount of protein (15-30 μg/lane) from each cell extract was resolved on a 12% SDS-PAGE gel. Proteins were blotted onto a NOVEX PVDF membrane by electrophoresis. The membranes were blocked with TBS-T blocking buffer (5% nonfat milk in 25 mM Tris-HCL, pH 7.4; 3 mM KCl; […] NaCl; and 0.05% Tween) and probed with primary antibodies (at a predetermined optimal concentration) overnight at 4° C. or for 1 hour at room temperature. After extensive washing with TBS-T, the membranes were incubated with an appropriate peroxidase-conjugated secondary antibody for 1 hour at room temperature. After three washes with TBS-T, the proteins of interest were detected with ECL Western Blotting Detection Reagents and recorded with autoradiography (Pierce Biotech, Rockford, Ill., USA). The primary antibody Bcl-x (#2762), Bcl-2 antibody (#2872S) and β-actin (13E5, #4970) were purchased from Cell Signaling.
(§3) IR-SC WI38 (FIG. 4A) and RS4; 11 (FIG. 4B) cells were incubated with vehicle or increasing concentrations of compounds of Formula (I) or Formula (II) for 6 or 16 hours, at 1 μM (FIG. 4A) and 100 nm (FIG. 4B), respectively. The cells were harvested in RIPA lysis buffer with 1% Phosphatase Inhibitor Cocktail 3 and 1% Protease Inhibitor Cocktail. An equal amount of protein (15-30 μg/lane) from each cell extract was resolved on a 12% SDS-PAGE gel. Proteins were blotted onto a NOVEX PVDF membrane by electrophoresis. The membranes were blocked with TBS-T blocking buffer (5% nonfat milk in 25 mM Tris-HCL, pH 7.4; 3 mM KCl; 140 mM NaCl; and 0.05% Tween) and probed with primary antibodies (at a predetermined optimal concentration) overnight at 4° C. or for 1 hour at room temperature. After extensive washing with TBS-T, the membranes were incubated with an appropriate peroxidase-conjugated secondary antibody (Jackson ImmunoResearch Europe, Suffolk, UK) for 1 hour at room temperature. After three washes with TBS-T, the proteins of interest were detected with ECL Western Blotting Detection Reagents and recorded with autoradiography. The primary antibody Bcl-xl (#2762), Bcl-2 antibody (#2872S), Bcl-w (#2724S), Mcl-1 (#5453s) and β-actin (13E5, #4970) were purchased from Cell Signaling.

Bcl-xL [3] = target: T1, Bcl-xL; experiment: Protein degradation assay (Western blot) in RS4;11 cells; set-up: dose or concentration left out as unconfirmed
Procedure: as §3, with “IR-SC WI38 (FIG. 4A) and RS4; 11 (FIG. 4B) cells were incubated with vehicle or increasing concentrations of compounds of Formula (I) or Formula (II) for 6 or 16 hours, at 1 μM (FIG. 4A) and 100 nm (FIG. 4B), respectively.” left out

[4] = viable (PI-) cells as percentage of vehicle control
[5] = Homo sapiens, WI-38, viable (PI-) cells as percentage of vehicle control

SMILES: CC1(C)CCC(c2ccc(Cl)cc2)=C(CN2CCN(c3ccc(C(=O)NS(=O)(=O)c4ccc(N[C@H](CCN5CCN(C(=O)CCCn6cc(COCCOCCNc7cccc8c7C(=O)N(C7CCC(=O)NC7=O)C8=O)nn6)CC5)CSc5ccccc5)c(S(=O)(=O)C(F)(F)F)c4)cc3)CC2)C1 (some centres unmarked) [PZ-15227]
EC50 (Normal WI38 (NSC); [4]): > 10000 nM
EC50 [1]: 108 nM
Ratio NSC/SC [1]: >92
EC50 (RS4; 11 cancer cells): 114 nM
EC50 (NCI-H146 cancer cells): 68.9 nM
Bcl-xL depletion in IR-SC WI38 cells (Bcl-xL [2]): deplete Bcl-xL
Bcl-xL depletion in RS4; 11 cells (Bcl-xL [3]): deplete Bcl-xL

EC50 (RS4; 11 cancer cells; Homo sapiens): 84.4 nM
EC50 (NCI-H146 cancer cells; Homo sapiens): 69.5 nM
SMILES: CC1(C)CCC(c2ccc(Cl)cc2)=C(CN2CCN(c3ccc(C(=O)NS(=O)(=O)c4ccc(N[C@H](CCN5CCN(C(=O)CCCn6cc(COCCOCCOCCNc7cccc8c7C(=O)N(C7CCC(=O)NC7=O)C8=O)nn6)CC5)CSc5ccccc5)c(S(=O)(=O)C(F)(F)F)c4)cc3)CC2)C1 (stereo partly drawn) [XZ-14439, 4-(4-((4′-chloro-4,4-dimethyl-3,4,5,6-tetrahydro-[1,1′-biphenyl]-2-yl)methyl)piperazin-1-yl)-N-((4-(((2R)-4-(4-(4-(4-((2-(2-(2-((2-(2,6-dioxopiperidin-1,3-yl)-1,3-dioxoisoindolin-4-yl)amino)ethoxy)ethoxy)ethoxy)methyl)-1H-1,2,3-triazol-1-yl)butanoyl)piperazin-1-yl)-1-(phenylthio)butan-2-yl)amino)-3-((trifluoromethyl)sulfonyl)phenyl)sulfonyl)benzamide]
EC50 (Normal WI38 (NSC); [5]): > 20000 nM
EC50 ([1]; Homo sapiens, WI-38): 870 nM
Ratio NSC/SC [1]: >20.88
Bcl-xL depletion in IR-SC WI38 cells, dose and time dependence (Bcl-xL [2]; increasing concentrations for 18 hours (FIG. 3A), fixed concentration for increasing times (FIG. 3B)): depletes Bcl-xL in IR-SC WI38 cells in both a dose dependent (FIG. 3A) and time dependent (FIG. 3B) manner

EC50 (RS4; 11 cancer cells; Homo sapiens): 823 nM
EC50 (NCI-H146 cancer cells; Homo sapiens): > 2000 nM
SMILES: Cc1ncsc1-c1ccc(CNC(=O)[C@@H]2C[C@@H](O)CN2C(=O)[C@@H](NC(=O)CCC(=O)NCCOCCOCCNC(=O)N2CCN(CC[C@H](CSc3ccccc3)Nc3ccc(S(=O)(=O)NC(=O)c4ccc(N5CCN(CC6=C(c7ccc(Cl)cc7)CCC(C)(C)C6)CC5)cc4)cc3S(=O)(=O)C(F)(F)F)CC2)C(C)(C)C)cc1 [XZ-14529]
EC50 (Normal WI38 (NSC); [5]): > 10000 nM
EC50 ([1]; Homo sapiens, WI-38): > 10000 nM

SMILES: CC1(C)CCC(c2ccc(Cl)cc2)=C(CN2CCN(c3ccc(C(=O)NS(=O)(=O)c4ccc(N[C@H](CCN5CCN(C(=O)COCCOCCOCCOCCNc6cccc7c6C(=O)N(C6CCC(=O)NC6=O)C7=O)CC5)CSc5ccccc5)c(S(=O)(=O)C(F)(F)F)c4)cc3)CC2)C1 (some centres unmarked) [XZ-14540]
EC50 (Normal WI38 (NSC); [5]): > 10000 nM
EC50 ([1]; Homo sapiens, WI-38): 1130 nM
Ratio NSC/SC [1]: 8.86
EC50 (RS4; 11 cancer cells; Homo sapiens): 82.4 nM
EC50 (NCI-H146 cancer cells; Homo sapiens): 76.2 nM

SMILES: CC1(C)CCC(c2ccc(Cl)cc2)=C(CN2CCN(c3ccc(C(=O)NS(=O)(=O)c4ccc(N[C@H](CCN5CCN(CCOCCOCCNc6cccc7c6C(=O)N(C6CCC(=O)NC6=O)C7=O)CC5)CSc5ccccc5)c(S(=O)(=O)C(F)(F)F)c4)cc3)CC2)C1 (stereo partly drawn) [XZ-15405, 4-(4-((4′-chloro-4,4-dimethyl-3,4,5,6-tetrahydro-[1,1′-biphenyl]-2-yl)methyl)piperazin-1-yl)-N-((4-(((2R)-4-(4-(2-(2-(2-((2-(2,6-dioxopiperidin-3-yl)-1,3-dioxoisoindolin-4-yl)amino)ethoxy)ethoxy)ethyl)piperazin-1-yl)-1-(phenylthio)butan-2-yl)amino)-3-((trifluoromethyl)sulfonyl)phenyl)sulfonyl)benzamide]
EC50 (Normal WI38 (NSC); [5]): > 10000 nM
EC50 ([1]; Homo sapiens, WI-38): 152 nM
Ratio NSC/SC [1]: >65.97
EC50 (RS4; 11 cancer cells; Homo sapiens): 24.8 nM
Bcl-xL depletion in IR-SC WI38 cells (Bcl-xL [2]): deplete Bcl-xL
Bcl-xL depletion in RS4; 11 cells (Bcl-xL [3]): deplete Bcl-xL

SMILES: CC1(C)CCC(c2ccc(Cl)cc2)=C(CN2CCN(c3ccc(C(=O)NS(=O)(=O)c4ccc(N[C@H](CCN5CCN(CCOCCNc6cccc7c6C(=O)N(C6CCC(=O)NC6=O)C7=O)CC5)CSc5ccccc5)c(S(=O)(=O)C(F)(F)F)c4)cc3)CC2)C1 (stereo partly drawn) [XZ-15416, 4-(4-((4′-chloro-4,4-dimethyl-3,4,5,6-tetrahydro-[1,1′-biphenyl]-2-yl)methyl)piperazin-1-yl)-N-((4-(((2R)-4-(4-(2-(2-((2-(2,6-dioxopiperidin-3-yl)-1,3-dioxoisoindolin-4-yl)amino)ethoxy)ethyl)piperazin-1-yl)-1-(phenylthio)butan-2-yl)amino)-3-((trifluoromethyl)sulfonyl)phenyl)sulfonyl)benzamide]
EC50 (Normal WI38 (NSC); [5]): > 10000 nM
EC50 ([1]; Homo sapiens, WI-38): < 156 nM
Ratio NSC/SC [1]: >64.02
EC50 (RS4; 11 cancer cells; Homo sapiens): 30.7 nM
EC50 (NCI-H146 cancer cells; Homo sapiens): > 10 nM
Bcl-xL depletion in IR-SC WI38 cells (Bcl-xL [2]): deplete Bcl-xL
Bcl-xL depletion in RS4; 11 cells (Bcl-xL [3]): deplete Bcl-xL

SMILES: CC1(C)CCC(c2ccc(Cl)cc2)=C(CN2CCN(c3ccc(C(=O)NS(=O)(=O)c4ccc(N[C@H](CCN5CCN(CCOCCOCCOCCNc6cccc7c6C(=O)N(C6CCC(=O)NC6=O)C7=O)CC5)CSc5ccccc5)c(S(=O)(=O)C(F)(F)F)c4)cc3)CC2)C1 (stereo partly drawn) [XZ-15418, 4-(4-((4′-chloro-4,4-dimethyl-3,4,5,6-tetrahydro-[1,1′-biphenyl]-2-yl)methy)piperazin-1-yl)-N-((4-(((2R)-4-(4-(2-(2-(2-(2-((2-(2,6-dioxopiperidin-3-yl)-1,3-dioxoisoindolin-4-yl)amino)ethoxy)ethoxy)ethoxy)ethyl)piperazin-1-yl)-1-(phenylthio)butan-2-yl)amino)-3-((trifluoromethyl)sulfonyl)phenyl)sulfonyl)benzamide]
EC50 (Normal WI38 (NSC); [4]): > 10000 nM
EC50 [1]: 172 nM
Ratio NSC/SC [1]: >58.06
EC50 (RS4; 11 cancer cells): 12.3 nM
Bcl-xL depletion in IR-SC WI38 cells (Bcl-xL [2]): deplete Bcl-xL
Bcl-xL depletion in RS4; 11 cells (Bcl-xL [3]): deplete Bcl-xL

EC50 (RS4; 11 cancer cells; Homo sapiens): 72.9 nM
Bcl-xL depletion in IR-SC WI38 cells (Bcl-xL [2]): deplete Bcl-xL
Bcl-xL depletion in RS4; 11 cells (Bcl-xL [3]): deplete Bcl-xL
SMILES: CC1(C)CCC(c2ccc(Cl)cc2)=C(CN2CCN(c3ccc(C(=O)NS(=O)(=O)c4ccc(N[C@H](CCN5CCN(C(=O)Cn6cc(COCCOCCNc7cccc8c7C(=O)N(C7CCC(=O)NC7=O)C8=O)nn6)CC5)CSc5ccccc5)c(S(=O)(=O)C(F)(F)F)c4)cc3)CC2)C1 (some centres unmarked) [XZ-15421]
EC50 (Normal WI38 (NSC); [5]): > 10000 nM
EC50 ([1]; Homo sapiens, WI-38): < 156 nM
Ratio NSC/SC [1]: >64.02

Source: patent US11319316B2, “Compounds that induce degradation of anti-apoptotic Bcl-2 family proteins and the uses thereof” (BioVentures, LLC, priority 2016, dated 2022)
